# From patent US8178506B2, “Oligomeric compounds and compositions for use in modulation of small non-coding RNAs” (Regulus Therapeutics Inc., priority 2003, dated 2012)
# In the oligonucleotide strings, read from the 5' end, every base follows the letter of its sugar. An asterisk marks phosphorothioate; unmarked linkages are phosphodiester. Other units and linkages are bracketed, terminal groups are in braces. A string of capitals states the bases alone. e = 2'-O-(2-methoxyethyl) (MOE); [5mC] = 5-methylcytosine; d = 2'-deoxy (DNA)
# How the values were obtained:
# [1] = test system: IL-6 mRNA; assay: IL-6 mRNA in LPS-activated primary murine macrophages; format: cell-based, mouse; details: average of 3 treatments
# Method in brief: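 Thioglycollate-elicited peritoneal macrophages from female C57Bl/6 mice, transfected with miRNA-targeting oligomeric compounds via FuGENE 6 (1 μL per 100 nM compound) for ~24–28 h at 37 °C, optionally primed 4 h with 100 ng/mL IFN-gamma, then stimulated 24 h with 100 ng/mL LPS. IL-6 mRNA quantified by real-time PCR.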
# [2] = test system: T47D cells; assay: Caspase-3 activity assay (apoptosis) in T47D cells; details: T47D cells, 200 nM, 48 hours, relative to untreated control
# [3] = test system: DIO mice; assay: Diet-induced obesity (DIO) mice; format: in vivo; details: 25 mg/kg s.c. twice weekly
substance,measurement,setting,value
"129690 (antisense TTAGAATACGTCGCGTTATG; sugars from the 5' end e5 d10 e5, all phosphorothioate, methylation of C not given here) [compound 129690]","IL-6 mRNA expression, % UTC","[1]; 75 nM, +IFN",92 % UTC
same,"IL-6 mRNA expression, % UTC","[1]; 75 nM, −IFN",98 % UTC
same,"IL-6 mRNA expression, % UTC","[1]; 150 nM, +IFN",86 % UTC
same,"IL-6 mRNA expression, % UTC","[1]; 150 nM, −IFN",99 % UTC
same,"IL-6 mRNA expression, % UTC","[1]; 300 nM, +IFN",94 % UTC
same,"IL-6 mRNA expression, % UTC","[1]; 300 nM, −IFN",109 % UTC
same,"IL-6 mRNA expression, % UTC","[1]; 600 nM, +IFN",203 % UTC
same,"IL-6 mRNA expression, % UTC","[1]; 600 nM, −IFN",258 % UTC
328403 (antisense eA*eG*eG*e[5mC]*e[5mC]*dT*dA*dT*dT*d[5mC]*d[5mC]*dT*dG*dT*dA*eG*e[5mC]*eA*eA*eA) [compound 328403],Fold Increase over UTC (caspase activity),[2],1.0
"CTAGTGGTCCTAAACATTTCAC (chemistry not given here) [ISIS 327878, uniform 2′-MOE PS; targets mir-203]","liver toxicity (plasma transaminase levels, weekly)",[3],did not appear to cause liver toxicity
